Measurements: ChEMBL document CHEMBL1137832, “P1' oxadiazole protease inhibitors with excellent activity against native and protease inhibitor-resistant HIV-1” (Bioorg Med Chem Lett, 2004)
pIC50: −log10 of the molar value.

Key:
[1] = molecular target: T1, Human immunodeficiency virus type 1 protease (Human immunodeficiency virus 1, UniProt Q72874); test: inhibitory concentration against HIV-1 protease from PI-resistant clinical isolate (V18)
[2] = molecular target: T1, Human immunodeficiency virus type 1 protease; test: Inhibitory concentration against HIV-1 protease (NL4-3)
MT4 [3] = test: Concentration required to inhibit spread of native HIV-1(4X) protease obtained from PI-resistant clinical isolate in MT-4 human T-lymphoid cells; assay type: functional; conditions: read-out: CIC95
MT4 [4] = test: Concentration required to inhibit spread of native HIV-1(V18) protease obtained from PI-resistant clinical isolate in MT-4 human T-lymphoid cells; assay type: functional; conditions: read-out: CIC95
MT4 [5] = test: Concentration required to inhibit spread of native HIV-1(K-60) protease obtained from PI-resistant clinical isolate in MT-4 human T-lymphoid cells; assay type: functional; conditions: read-out: CIC95
MT4 [6] = test: Concentration required to inhibit spread of native HIV-1(Q-60) protease obtained from PI-resistant clinical isolate in MT-4 human T-lymphoid cells; assay type: functional; conditions: read-out: CIC95
MT4 [7] = test: Concentration required to inhibit spread of native HIV-1(NL4-3) protease obtained from PI-resistant clinical isolate in MT-4 human T-lymphoid cells; assay type: functional; conditions: read-out: CIC95

Row | SMILES | pIC50 [1] | pIC50 [2] | IC95 (MT4 [3]) | IC95 (MT4 [4]) | IC95 (MT4 [5]) | IC95 (MT4 [6]) | IC95 (MT4 [7])
1 | CC(C)(c1ncc(-c2ccc(F)cc2)o1)N1CCN(C[C@@H](O)C[C@@H](Cc2nnco2)C(=O)N[C@H]2CCOC[C@H]2O)[C@H](C(=O)NCC(F)(F)F)C1 | 10.22 | 10.70 | 31 nM | 125 nM | 125 nM | 31 nM | 125 nM
2 | CC(C)(c1ncc(-c2ccc(Cl)cc2)o1)N1CCN(C[C@@H](O)C[C@@H](Cc2nnc(-c3ccccc3)o2)C(=O)N[C@H]2CCOC[C@H]2O)[C@H](C(=O)NCC(F)(F)F)C1 | 9.74 | > 11.00 | 16 nM | 125 nM | ≤ 8 nM | 16 nM | ≤ 8 nM
3 | Cc1nnc(C[C@H](C[C@H](O)CN2CCN(C(C)(C)c3ncc(-c4ccc(F)cc4)o3)C[C@H]2C(=O)NCC(F)(F)F)C(=O)N[C@H]2CCOC[C@H]2O)o1 | 9.72 | 10.70 | 31 nM | 63 nM | 125 nM | 31 nM | 125 nM
4 | CC(C)(c1ncc(-c2ccc(F)cc2)o1)N1CCN(C[C@@H](O)C[C@@H](Cc2nnc(-c3ccccc3)o2)C(=O)N[C@H]2CCOC[C@H]2O)[C@H](C(=O)NCC(F)(F)F)C1 | – | 10.70 | 16 nM | 63 nM | ≤ 8 nM | 16 nM | ≤ 8 nM
5 | CCCc1nnc(C[C@H](C[C@H](O)CN2CCN(C(C)(C)c3ncc(-c4cncc(OC)c4)o3)C[C@H]2C(=O)NCC(F)(F)F)C(=O)N[C@H]2CCOC[C@H]2O)o1 | – | 9.49 | 500 nM | < 1000 nM | 500 nM | 500 nM | 500 nM
6 | CCCc1nnc(C[C@H](C[C@H](O)CN2CCN(C(C)(C)c3ncc(-c4ccc(F)cc4)o3)C[C@H]2C(=O)NCC(F)(F)F)C(=O)N[C@H]2CCOC[C@H]2O)o1 | 9.72 | 11.00 | 16 nM | 63 nM | 16 nM | ≤ 8 nM | 16 nM
7 | COc1cncc(-c2cnc(C(C)(C)N3CCN(C[C@@H](O)C[C@@H](Cc4nnco4)C(=O)N[C@H]4CCOC[C@H]4O)[C@H](C(=O)NCC(F)(F)F)C3)o2)c1 | 8.13 | 9.62 | – | – | – | – | –
8 | Cc1nnc(C[C@H](C[C@H](O)CN2CCN(Cc3ccc(-c4ccc(Cl)cc4)o3)C[C@H]2C(=O)NCC(F)(F)F)C(=O)N[C@H]2CCOC[C@H]2O)o1 | – | > 11.00 | 31 nM | 63 nM | 31 nM | 31 nM | ≤ 63 nM
9 | CCCc1nnc(C[C@H](C[C@H](O)CN2CCN(Cc3ccc(-c4ccc(Cl)cc4)o3)C[C@H]2C(=O)NCC(F)(F)F)C(=O)N[C@H]2CCOC[C@H]2O)o1 | – | > 11.00 | 31 nM | 125 nM | ≤ 8 nM | 16 nM | ≤ 8 nM
10 | O=C(N[C@H]1CCOC[C@H]1O)[C@H](Cc1nnc(-c2ccccc2)o1)C[C@H](O)CN1CCN(Cc2ccc(-c3ccc(Cl)cc3)o2)C[C@H]1C(=O)NCC(F)(F)F | – | 11.00 | 125 nM | 250 nM | ≤ 8 nM | 63 nM | 15.6 nM
11 | COc1cncc(-c2cnc(C(C)(C)N3CCN(C[C@@H](O)C[C@@H](Cc4nnc(-c5ccccc5)o4)C(=O)N[C@H]4CCOC[C@H]4O)[C@H](C(=O)NCC(F)(F)F)C3)o2)c1 | – | 9.32 | 250 nM | < 1000 nM | 250 nM | 500 nM | 125 nM
12 | Cc1nnc(C[C@H](C[C@H](O)CN2CCN(C(C)(C)c3ncc(-c4ccc(Cl)cc4)o3)C[C@H]2C(=O)NCC(F)(F)F)C(=O)N[C@H]2CCOC[C@H]2O)o1 | 10.22 | 11.00 | 16 nM | 63 nM | 31 nM | ≤ 8 nM | 250 nM
13 | CC(C)(C)NC(=O)[C@@H]1CN(Cc2cccnc2)CCN1C[C@@H](O)C[C@@H](Cc1ccccc1)C(=O)N[C@H]1c2ccccc2C[C@H]1O | – | – | 400 nM | > 1000 nM | > 1000 nM | > 1000 nM | 50 nM
14 | CC(C)(c1ncc(-c2ccc(Cl)cc2)o1)N1CCN(C[C@@H](O)C[C@@H](Cc2nnco2)C(=O)N[C@H]2CCOC[C@H]2O)[C@H](C(=O)NCC(F)(F)F)C1 | 10.40 | > 11.00 | 31 nM | 63 nM | 63 nM | 31 nM | 125 nM
15 | COc1cncc(-c2cnc(C(C)(C)N3CCN(C[C@@H](O)C[C@@H](Cc4nnc(C)o4)C(=O)N[C@H]4CCOC[C@H]4O)[C@H](C(=O)NCC(F)(F)F)C3)o2)c1 | 7.82 | 9.40 | > 1000 nM | > 1000 nM | > 1000 nM | > 1000 nM | > 1000 nM
16 | O=C(N[C@H]1CCOC[C@H]1O)[C@H](Cc1nnco1)C[C@H](O)CN1CCN(Cc2ccc(-c3ccc(Cl)cc3)o2)C[C@H]1C(=O)NCC(F)(F)F | 10.05 | 11.00 | 31 nM | 125 nM | 63 nM | 31 nM | 63 nM
17 | CCCc1nnc(C[C@H](C[C@H](O)CN2CCN(C(C)(C)c3ncc(-c4ccc(Cl)cc4)o3)C[C@H]2C(=O)NCC(F)(F)F)C(=O)N[C@H]2CCOC[C@H]2O)o1 | 9.74 | > 11.00 | ≤ 8 nM | 63 nM | 16 nM | ≤ 8 nM | ≤ 8 nM
